Assay type in all cases: cell-based
Experiment [1] deals with NK1 (Homo sapiens, UniProt P25103). As to the kind of experiment: Signal transduction (ST), intracellular Ca++ (FLIPR), functional NK1 antagonistic activity. The note with it: antagonist, read-out: NK1 pIC50 (converted). The method, then: (§1) This test evaluates in vitro functional NK1 antagonistic activity. For the measurements of intracellular Ca^++ concentrations the cells were grown on 96-well (black wall/transparent bottom) plates from Costar for 2 days until they reached confluence. The cells were loaded with 2 μM Fluo3 in DMEM containing 0.1% BSA and 2.5 mM probenecid for 1 h at 37° C. They were washed 3× with a Krebs buffer (140 mM NaCl, 1 mM MgCl2×6H2O, 5 mM KCl, 10 mM glucose, 5 mM HEPES; 1.25 mM CaCl2; pH 7.4) containing 2.5 mM probenecid and 0.1% BSA (Ca^++-buffer). The cells were preincubated with a concentration range of antagonists for 20 min at RT and Ca^++-signals after addition of the agonists were measured in a Fluorescence Image Plate Reader (FLIPR from Molecular Devices, Crawley, England). The peak of the Ca^++-transient was considered as the relevant signal and the mean values of corresponding wells were analysed as described below.
(§2) The sigmoidal dose response curves were analysed by computerised curve-fitting, using the GraphPad Program. The EC50-value of a compound is the effective dose showing 50% of maximal effect. For mean curves the response to the agonist with the highest potency was normalised to 100%. For antagonist responses the IC50-value was calculated using non-linear regression.
(§3) The last columns indicate—without being limited thereto—for which action the compounds might be most suitable. Of course, since for some neurokinin receptors no data was determined, it is obvious that these compounds might be attributed to another suitable use.

For experiment [2], the target named is T1, NK2 (Homo sapiens, UniProt P21452).
T1 sequence (P21452 1-398): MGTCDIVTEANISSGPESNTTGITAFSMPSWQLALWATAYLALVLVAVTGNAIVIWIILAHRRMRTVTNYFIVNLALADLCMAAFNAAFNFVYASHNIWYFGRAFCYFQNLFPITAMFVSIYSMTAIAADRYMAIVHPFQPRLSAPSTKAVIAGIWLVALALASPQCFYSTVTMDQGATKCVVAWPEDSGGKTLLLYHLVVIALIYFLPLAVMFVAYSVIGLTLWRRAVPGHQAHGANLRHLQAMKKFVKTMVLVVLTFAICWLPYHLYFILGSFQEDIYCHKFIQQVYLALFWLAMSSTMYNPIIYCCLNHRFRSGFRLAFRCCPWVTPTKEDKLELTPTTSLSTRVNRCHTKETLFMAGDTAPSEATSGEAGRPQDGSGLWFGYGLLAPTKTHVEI
Description: Signal transduction (ST), intracellular Ca++ (FLIPR), NK2. The settings on record: antagonist, read-out: NK2 pIC50 (converted). The method, then:
[The source words this procedure for another target and reports this target under the same test.] as §1, §2, §3

For experiment [3], the target named is T2, NK3 (Homo sapiens, UniProt P29371).
T2 sequence (P29371 1-465): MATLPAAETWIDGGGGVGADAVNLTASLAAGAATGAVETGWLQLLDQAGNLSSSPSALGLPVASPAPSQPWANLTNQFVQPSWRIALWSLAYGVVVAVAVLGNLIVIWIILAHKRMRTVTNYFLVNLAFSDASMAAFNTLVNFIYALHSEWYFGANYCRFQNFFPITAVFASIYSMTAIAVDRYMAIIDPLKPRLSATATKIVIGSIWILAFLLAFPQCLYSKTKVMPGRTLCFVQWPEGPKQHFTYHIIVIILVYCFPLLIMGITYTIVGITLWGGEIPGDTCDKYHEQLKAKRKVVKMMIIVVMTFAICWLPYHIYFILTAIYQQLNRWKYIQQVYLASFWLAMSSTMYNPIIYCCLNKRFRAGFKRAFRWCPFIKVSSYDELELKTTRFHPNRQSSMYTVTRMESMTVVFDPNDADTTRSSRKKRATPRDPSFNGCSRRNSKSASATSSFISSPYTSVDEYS
Description: Signal transduction (ST), intracellular Ca++ (FLIPR), NK3. The note with it: antagonist, read-out: NK3 pIC50 (converted). The procedure:
[The source words this procedure for another target and reports this target under the same test.] as §1, §2, §3

Sequence of NK1 (P25103 whole entry): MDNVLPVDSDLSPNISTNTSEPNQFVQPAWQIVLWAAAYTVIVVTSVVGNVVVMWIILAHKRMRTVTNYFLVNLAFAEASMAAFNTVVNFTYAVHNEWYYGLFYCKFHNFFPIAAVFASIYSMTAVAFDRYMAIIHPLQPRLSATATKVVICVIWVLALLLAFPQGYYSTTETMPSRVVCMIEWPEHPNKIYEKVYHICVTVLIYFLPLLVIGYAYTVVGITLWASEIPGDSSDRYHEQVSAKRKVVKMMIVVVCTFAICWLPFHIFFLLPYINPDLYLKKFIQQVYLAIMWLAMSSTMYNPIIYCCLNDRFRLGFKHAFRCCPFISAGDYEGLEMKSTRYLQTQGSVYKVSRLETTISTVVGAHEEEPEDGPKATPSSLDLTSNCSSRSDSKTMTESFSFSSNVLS

Regarding `O=C(C1CCOC1)N1CCC2(CCN(C[C@H]3CCN(C(=O)c4cc(C(F)(F)F)cc(C(F)(F)F)c4)[C@H](Cc4ccccc4)C3)CC2)CC1` (stereo partly drawn) [Compound 180], the figures for the IC50 in experiment [1], in experiment [2] and in experiment [3] were 0.0148 µM, 8.32 µM and > 10 µM, respectively.
The matching figures for `CC1(C(=O)N2CCC3(CC2)CCN([C@H]2CCN(C(=O)c4cc(C(F)(F)F)cc(C(F)(F)F)c4)[C@H](Cc4ccccc4)C2)CC3)CCCCC1` [Compound 37]: 0.0955 µM, 8.13 µM and > 10 µM.
With `CC(C)(C)C(=O)N1CCCC2(CCCN([C@H]3CCN(C(=O)c4cc(C(F)(F)F)cc(C(F)(F)F)c4)[C@H](Cc4ccccc4)C3)C2)C1` (stereo partly drawn) [Compound 207], the IC50 in experiment [1] was 0.589 µM; in experiment [2] it was 1.91 µM; in experiment [3] it was 5.75 µM.
Turning to `O=C1CCC(C(=O)N2CCC3(CC2)CCN(C2CCN(C(=O)c4cc(C(F)(F)F)cc(C(F)(F)F)c4)C(Cc4ccccc4)C2)CC3)N1` (stereo not drawn) [Compound 4], the IC50 in experiment [1] was 0.0389 µM; in experiment [2], 1.55 µM; in experiment [3], 1.29 µM.
For `COc1ccc(S(=O)(=O)N2CCC3(CCN([C@H]4CCN(C(=O)c5cc(C(F)(F)F)cc(C(F)(F)F)c5)[C@H](Cc5ccccc5)C4)CC3)CC2)cc1OC` [Compound 122] the same measures were 0.0447 µM, 3.98 µM and > 10 µM.
Turning to `O=C(c1cnc2ccccc2n1)N1CCC2(CC1)CCN([C@H]1CCN(C(=O)c3cc(C(F)(F)F)cc(C(F)(F)F)c3)[C@H](Cc3ccccc3)C1)CC2` [Compound 66], the IC50 is 0.0661 µM in experiment [1], 3.72 µM in experiment [2] and 6.92 µM in experiment [3].
The matching figures for `O=C(C1CCOC1)N1CCC2(CC1)CCN(C(=O)[C@H]1CCN(C(=O)c3cc(C(F)(F)F)cc(C(F)(F)F)c3)[C@H](Cc3ccccc3)C1)CC2` (stereo partly drawn) [Compound 187]: 0.02 µM, 7.08 µM and > 10 µM.
Regarding `O=C1CC2(CCN1Cc1ccccc1F)CCN([C@H]1CCN(C(=O)c3cc(C(F)(F)F)cc(C(F)(F)F)c3)[C@H](Cc3ccccc3)C1)CC2` [Compound 202], the IC50 in experiment [1] was 0.245 µM; in experiment [2], 4.57 µM; in experiment [3] it was 7.24 µM.
For `O=C(c1cc(C(F)(F)F)cc(C(F)(F)F)c1)N1CCC(N2CCC3(CC2)CCN(C(CO)c2cccs2)CC3)CC1Cc1ccccc1` (stereo not drawn) [Compound 6], the IC50 is 0.129 µM in experiment [1], 7.76 µM in experiment [2] and > 10 µM in experiment [3].
As to `N#Cc1ccc(C(=O)N2CCC3(CC2)CCN([C@H]2CCN(C(=O)c4cc(C(F)(F)F)cc(C(F)(F)F)c4)[C@H](Cc4ccccc4)C2)CC3)cc1` [Compound 43], the IC50 in experiment [1] was 0.105 µM; in experiment [2], 3.63 µM; in experiment [3], > 10 µM.
For `O=C(c1cc(C(F)(F)F)cc(C(F)(F)F)c1)N1CC[C@H](N2CCC3(CC2)CCN(S(=O)(=O)c2ccc(Cl)c(Cl)c2)CC3)C[C@H]1Cc1ccccc1` [Compound 113] the same measures were 0.427 µM, > 10 µM and > 10 µM.
For the compound `Cc1ccc(S(=O)(=O)N2CCC3(CCN([C@H]4CCN(C(=O)c5cc(C(F)(F)F)cc(C(F)(F)F)c5)[C@H](Cc5ccccc5)C4)CC3)CC2)cc1` [Compound 105], the IC50 is 0.105 µM in experiment [1], 2.45 µM in experiment [2] and 2 µM in experiment [3].
Take `Cc1ccsc1C(=O)N1CCC2(CC1)CCN([C@H]1CCN(C(=O)c3cc(C(F)(F)F)cc(C(F)(F)F)c3)[C@H](Cc3ccccc3)C1)CC2` [Compound 32]: the IC50 in experiment [1] is 0.0759 µM; in experiment [2] it was 3.16 µM; in experiment [3] it was 6.61 µM.
Take `Cc1nnsc1C(=O)N1CCC2(CC1)CCN(C(=O)[C@H]1CCN(C(=O)c3cc(C(F)(F)F)cc(C(F)(F)F)c3)[C@H](Cc3ccccc3)C1)CC2` [Compound 190]: the results for the IC50 in experiment [1], in experiment [2] and in experiment [3] were 0.00617 µM, 1.62 µM and 3.55 µM, respectively.
For `O=C(CN1CCCC1=O)N1CCC2(CC1)CCN([C@H]1CCN(C(=O)c3cc(C(F)(F)F)cc(C(F)(F)F)c3)[C@H](Cc3ccccc3)C1)CC2` [Compound 78] the same measures were 0.269 µM, > 10 µM and > 10 µM.
`O=C(CC1CCCCC1)N1CCC2(CC1)CCN([C@H]1CCN(C(=O)c3cc(C(F)(F)F)cc(C(F)(F)F)c3)[C@H](Cc3ccccc3)C1)CC2` [Compound 71]: the IC50 was 0.0933 µM in experiment [1], 9.77 µM in experiment [2] and > 10 µM in experiment [3].
The matching figures for `O=C(c1cc(C(F)(F)F)cc(C(F)(F)F)c1)N1CC[C@H](N2CCC3(CC2)CCN(S(=O)(=O)Cc2ccccc2)CC3)C[C@H]1Cc1ccccc1` [Compound 126]: 0.0331 µM, 3.39 µM and 3.98 µM.
`O=C(c1ccco1)N1CCCC2(CCN([C@H]3CCN(C(=O)c4cc(C(F)(F)F)cc(C(F)(F)F)c4)[C@H](Cc4ccccc4)C3)CC2)C1` [Compound 176]: the IC50 in experiment [1] is 0.0724 µM; in experiment [2] it was ~6.46 µM; in experiment [3], > 10 µM.
The matching figures for `O=C(C1CC1)N1CCCC2(CCN([C@@H]3CCN(C(=O)c4cc(C(F)(F)F)cc(C(F)(F)F)c4)[C@H](Cc4ccccc4)C3)CC2)C1` [Compound 173]: 0.0309 µM, ~1.62 µM and > 10 µM.
Regarding `O=C(C1=COCCC1)N1CCC2(CC1)CCN([C@H]1CCN(C(=O)c3cc(C(F)(F)F)cc(C(F)(F)F)c3)[C@H](Cc3ccccc3)C1)CC2` [Compound 45], the values for the IC50 in experiment [1], in experiment [2] and in experiment [3] were 0.0794 µM, 5.37 µM and > 10 µM, respectively.
`O=C(C1CCOC1)N1CCC2(CC1)CCN([C@H]1CCN(C(=O)c3cc(C(F)(F)F)cc(C(F)(F)F)c3)[C@H](Cc3ccccc3)C1)CC2` (stereo partly drawn) [Compound 21]: the IC50 in experiment [1] was 0.0166 µM; in experiment [2], 2.34 µM; in experiment [3], 2.14 µM.
For `O=C(c1ccc(=O)[nH]c1)N1CCC2(CC1)CCN([C@H]1CCN(C(=O)c3cc(C(F)(F)F)cc(C(F)(F)F)c3)[C@H](Cc3ccccc3)C1)CC2` [Compound 57] the same measures were 0.151 µM, 1.91 µM and > 10 µM.
The matching figures for `O=C(c1cc(C(F)(F)F)cc(C(F)(F)F)c1)N1CC[C@H](N2CCC3(CC2)CCN(S(=O)(=O)c2cccc(Cl)c2)CC3)C[C@H]1Cc1ccccc1` [Compound 107]: 0.115 µM, 4.17 µM and 3.16 µM.
The matching figures for `Cc1noc(C)c1CN1CCC2(CCN([C@@H]3CCN(C(=O)c4cc(C(F)(F)F)cc(C(F)(F)F)c4)[C@H](Cc4ccccc4)C3)CC2)CC1=O` [Compound 201]: 0.219 µM, 2.82 µM and ~10 µM.
Consider `O=C(c1cc(C(F)(F)F)cc(C(F)(F)F)c1)N1CC[C@H](N2CCC3(CC2)CCN(S(=O)(=O)c2ccc(C(F)(F)F)cc2)CC3)C[C@H]1Cc1ccccc1` [Compound 117], for which the IC50 in experiment [1] was 0.447 µM; in experiment [2], > 10 µM; in experiment [3], > 10 µM.
For the compound `O=C(C(CO)c1ccccc1)N1CCC2(CC1)CCN([C@H]1CCN(C(=O)c3cc(C(F)(F)F)cc(C(F)(F)F)c3)[C@H](Cc3ccccc3)C1)CC2` (stereo partly drawn) [Compound 88], the IC50 was 0.0417 µM in experiment [1], 3.02 µM in experiment [2] and > 10 µM in experiment [3].
For `O=C(C1CC1)N1CCCC2(CCN([C@H]3CCN(C(=O)c4cc(C(F)(F)F)cc(C(F)(F)F)c4)[C@H](Cc4ccccc4)C3)CC2)C1` [Compound 172] the same measures were 0.0933 µM, 6.92 µM and 5.75 µM.

These data come from patent US7544694B2, “Substituted diaza-spiro-[5.5]-undecane derivatives and their use as neurokinin antagonists” (Janssen Pharmaceutica N.V., priority 2004, dated 2009).
